First: CCCS(=O)(=O)Nc1ccc(-c2c(C#N)c3ccc(N4CCCC4)cc3n2C2CCC2)cc1 [Compound 2955]
Second: CCS(=O)(=O)Nc1ccc(-c2c(C#N)c3ccc(N4CCCC4)cc3n2C2CCC2)cc1 [Compound 2962]
The melting point of the first is lower: 229 to 234 °C for the first, 244 to 250 °C for the second.

Compared with `CCCS(=O)(=O)Nc1ccc(-c2c(C#N)c3ccc(Oc4ncccc4F)cc3n2C2CC2)cc1` [Compound 2956], `CCCS(=O)(=O)Nc1ccc(-c2c(C#N)c3ccc(Oc4ncccc4Br)cc3n2C2CC2)cc1` [Compound 3003] is higher in melting point: 198 to 200 °C for the first, 223 to 225 °C for the second.

First: CS(=O)(=O)CCCOc1ccc2c(C#N)c(-c3ccc(NS(=O)(=O)C4CC4)cc3)n(C3CCC3)c2c1 [Compound 2957]
Second: CS(=O)(=O)COc1ccc2c(C#N)c(-c3ccc(NS(=O)(=O)C4CCC4)cc3)n(C3CCC3)c2c1 [Compound 2993]
The melting point of the first is lower: 203 to 204 °C for the first, 231 to 237 °C for the second.

First: C[C@@H](OC(=O)Nc1ccc(-c2c(C#N)c3ccc(OCCCS(C)(=O)=O)cc3n2C2CCC2)cc1)C(F)(F)F [Compound 2958]
Second: CC(OC(=O)Nc1ccc(-c2c(C#N)c3ccc(OCc4cnccn4)cc3n2C2CCC2)cc1)C(F)(F)F (stereo not shown) [Compound 3021]
The melting point of the first is higher: 206 to 208 °C for the first, 195 to 196 °C for the second.

First: C[C@@H](OC(=O)Nc1ccc(-c2c(C#N)c3ccc(-c4ccccn4)cc3n2C2CCC2)cc1)C(F)(F)F [Compound 2959]
Second: C[C@@H](OC(=O)Nc1ccc(-c2c(C#N)c3ccc(-c4ccccn4)cc3n2C2CCC2)cc1Cl)C(F)(F)F [Compound 2994]
The melting point of the first is higher: 220 to 222 °C for the first, 84 to 94 °C for the second.

First: N#Cc1c(-c2ccc(NS(=O)(=O)C3CC3)cc2)n(C2CCC2)c2cc(N3CCCC3)ccc12 [Compound 2960]
Second: N#Cc1c(-c2ccc(NS(=O)(=O)C3CC3)cc2)n(C2CCC2)c2cc(N3CCCCC3)ccc12 [Compound 2983]
The melting point of the first is higher: 258 to 260 °C for the first, 232 to 238 °C for the second.

Compared with `C[C@@H](OC(=O)Nc1ccc(-c2c(C#N)c3ccc(N4CCCC4)cc3n2C2CCC2)cc1)C(F)(F)F` [Compound 2961], `CC(C)OC(=O)Nc1ccc(-c2c(C#N)c3ccc(N4CCCCC4)cc3n2C2CCC2)cc1` [Compound 2967] is lower in melting point: 246 to 249 °C for the first, 208 to 213 °C for the second.

First: CCCS(=O)(=O)Nc1ccc(-c2c(C#N)c3ccc(N4CCCCC4)cc3n2CC2CC2)cc1 [Compound 2963]
Second: CCS(=O)(=O)Nc1ccc(-c2c(C#N)c3ccc(N4CCCCC4)cc3n2C2CCC2)cc1 [Compound 2974]
The melting point of the first is lower: 189 to 194 °C for the first, 203 to 205 °C for the second.

First: CC1(S(=O)(=O)Nc2ccc(-c3c(C#N)c4ccc(C(=O)N5CCOCC5)cc4n3C3CCC3)cc2)CC1 [Compound 2964]
Second: CCC1(S(=O)(=O)Nc2ccc(-c3c(C#N)c4ccc(C(=O)N5CCOCC5)cc4n3C3CCC3)cc2)CC1 [Compound 2965]
The melting point of the first is higher: 248 to 250 °C for the first, 212 to 214 °C for the second.

Compared with `CC(C)S(=O)(=O)Nc1ccc(-c2c(C#N)c3ccc(N4CCCCC4)cc3n2C2CCC2)cc1` [Compound 2968], `CC(C)S(=O)(=O)Nc1ccc(-c2c(C#N)c3ccc(N4CCCC4)cc3n2C2CCC2)cc1` [Compound 2975] is higher in melting point: 233 to 235 °C for the first, 256 to 261 °C for the second.

Compared with `CCCS(=O)(=O)Nc1ccc(-c2c(C#N)c3ccc(Oc4nccc(C)n4)cc3n2CC2CC2)cc1` [Compound 2969], `CCCS(=O)(=O)Nc1ccc(-c2c(C#N)c3ccc(Oc4nccc(C)n4)cc3n2CC2CC2)c(C)c1` [Compound 2980] is lower in melting point: 181 to 183 °C for the first, 167 to 170 °C for the second.

Compared with `N#Cc1c(-c2ccc(NCc3ccccc3C(F)(F)F)cc2)n(C2CCC2)c2cc(OCCF)ccc12` [Compound 2970], `C[C@@H](OC(=O)Nc1ccc(-c2c(C#N)c3ccc(-c4ncccc4C(F)(F)F)cc3n2C2CCC2)cc1)C1CC1` [Compound 2997] is lower in melting point: 183 to 185 °C for the first, 90 to 98 °C for the second.

First: CCCS(=O)(=O)Nc1ccc(-c2c(C#N)c3ccc(-c4ncccc4Cl)cc3n2C2CCC2)cc1 [Compound 2972]
Second: CCCS(=O)(=O)Nc1ccc(-c2c(C#N)c3ccc(-c4cc(C)ccn4)cc3n2C2CCC2)cc1 [Compound 2978]
The melting point of the first is higher: 235 to 237 °C for the first, 210 to 212 °C for the second.

First: Cc1cccc(-c2ccc3c(C#N)c(-c4ccc(NC(=O)O[C@H](C)C5CC5)cc4)n(C4CCC4)c3c2)c1 [Compound 2977]
Second: Cc1ccc(-c2ccc3c(C#N)c(-c4ccc(NC(=O)O[C@H](C)C5CC5)cc4)n(C4CCC4)c3c2)nc1 [Compound 3002]
The melting point of the first is higher: 112 to 117 °C for the first, 88 to 102 °C for the second.

First: CCCS(=O)(=O)Nc1ccc(-c2c(C#N)c3ccc(Oc4nccc(C(F)(F)F)n4)cc3n2CC2CC2)c(C)c1 [Compound 2981]
Second: CCCS(=O)(=O)Nc1ccc(-c2c(C#N)c3ccc(Oc4ncccc4F)cc3n2CC2CC2)c(C)c1 [Compound 3030]
The melting point of the first is higher: 174 to 177 °C for the first, 128 to 131 °C for the second.

First: CC(C)CS(=O)(=O)Nc1ccc(-c2c(C#N)c3ccc(N4CCCCC4)cc3n2C2CCC2)cc1 [Compound 2982]
Second: CS(=O)(=O)Nc1ccc(-c2c(C#N)c3ccc(N4CCCCC4)cc3n2C2CCC2)cc1 [Compound 2984]
The melting point of the first is lower: 198 to 202 °C for the first, 229 to 233 °C for the second.

Compared with `C[C@@H](OC(=O)Nc1ccc(-c2c(C#N)c3ccc(N4CCCC4)cc3n2C2CCC2)cc1)C1CC1` [Compound 2985], `C[C@@H](OC(=O)Nc1ccc(-c2c(C#N)c3ccc(N4CCCC4)cc3n2C2CC2)cc1)C1CC1` [Compound 2986] is lower in melting point: 205 to 210 °C for the first, 197 to 202 °C for the second.

First: CCCS(=O)(=O)Nc1ccc(-c2c(C#N)c3ccc(OCS(C)(=O)=O)cc3n2C2CCC2)cc1 [Compound 2987]
Second: CC(C)CS(=O)(=O)Nc1ccc(-c2c(C#N)c3ccc(OCS(C)(=O)=O)cc3n2C2CCC2)cc1 [Compound 2991]
The melting point of the first is higher: 266 to 273 °C for the first, 221 to 225 °C for the second.

First: C[C@@H](OC(=O)Nc1ccc(-c2c(C#N)c3cc(Oc4cnccn4)ccc3n2C2CCC2)cc1)C1CC1 [Compound 2995]
Second: C[C@@H](OC(=O)Nc1ccc(-c2c(C#N)c3cc(Oc4ncccn4)ccc3n2C2CCC2)cc1)C1CC1 [Compound 2996]
The melting point of the first is higher: 206 to 208 °C for the first, 200 to 202 °C for the second.

Compared with `Cc1cccnc1-c1ccc2c(C#N)c(-c3ccc(NC(=O)O[C@H](C)C4CC4)cc3)n(C3CCC3)c2c1` [Compound 2999], `C[C@@H](OC(=O)Nc1ccc(-c2c(C#N)c3ccc(-c4ccnn4C)cc3n2C2CCC2)cc1)C1CC1` [Compound 3046] is lower in melting point: 226 to 228 °C for the first, 195 to 197 °C for the second.

First: C[C@@H](OC(=O)Nc1ccc(-c2c(C#N)c3ccc(-c4cccc(Cl)n4)cc3n2C2CCC2)cc1)C1CC1 [Compound 3000]
Second: C[C@@H](OC(=O)Nc1ccc(-c2c(C#N)c3ccc(-c4ccc(Cl)cn4)cc3n2C2CCC2)cc1)C1CC1 [Compound 3001]
The melting point of the first is higher: 208 to 210 °C for the first, 111 to 122 °C for the second.

Compared with `CC(C)Nc1ccc(-c2c(C#N)c3ccc(Oc4ncccc4F)cc3n2C2CCC2)cc1` [Compound 3004], `Cc1ccnc(Oc2ccc3c(C#N)c(-c4ccc(NC(C)C)cc4)n(C4CCC4)c3c2)n1` [Compound 3006] is lower in melting point: 188 to 190 °C for the first, 173 to 175 °C for the second.

`C[C@@H](OC(=O)Nc1ccc(-c2c(C#N)c3ccc(Oc4ncccc4F)cc3n2C2CC2)cc1)C1CC1` [Compound 3007] and `C[C@H](NS(=O)(=O)Nc1ccc(-c2c(C#N)c3ccc(Oc4ncccc4F)cc3n2C2CCC2)cc1)C1CC1` [Compound 3018] cannot be ordered by melting point: 154 to 156 °C for the first, 155 to 157 °C for the second.

First: CC(C)OC(=O)Nc1ccc(-c2c(C#N)c3ccc(N4CCOCC4)cc3n2C2CCC2)cc1Cl [Compound 3011]
Second: CCCS(=O)(=O)Nc1ccc(-c2c(C#N)c3ccc(N4CCOCC4)cc3n2C2CCC2)cc1 [Compound 3013]
The melting point of the first is higher: 196 to 199 °C for the first, 176 to 179 °C for the second.

`C[C@H](NS(=O)(=O)Nc1ccc(-c2c(C#N)c3ccc(Oc4ncccc4Cl)cc3n2C2CCC2)cc1)C1CC1` [Compound 3017] and `C[C@H](NS(=O)(=O)Nc1ccc(-c2c(C#N)c3ccc(Oc4ncccc4Br)cc3n2C2CCC2)cc1)C1CC1` [Compound 3020] cannot be ordered by melting point: 120 to 125 °C for the first, 118 to 124 °C for the second.

First: Cc1ccnc(Oc2ccc3c(C#N)c(-c4ccc(NS(=O)(=O)N[C@@H](C)C5CC5)cc4)n(C4CCC4)c3c2)n1 [Compound 3019]
Second: C[C@@H](OC(=O)Nc1ccc(-c2c(C#N)c3ccc(Oc4ncccn4)cc3n2C2CCC2)cc1OC(F)(F)F)C1CC1 [Compound 3034]
The melting point of the first is higher: 227 to 229 °C for the first, 80 to 81 °C for the second.

Compared with `CC(C)(C)OC(=O)Nc1ccc(-c2c(C#N)c3ccc(OCS(C)(=O)=O)cc3n2CC2CC2)cc1` [Compound 3025], `CCCS(=O)(=O)Nc1ccc(-c2c(C#N)c3ccc(Oc4ncccc4Br)cc3n2CC2CC2)c(C)c1` [Compound 3029] is lower in melting point: 214 to 220 °C for the first, 110 to 113 °C for the second.

First: CC(C)OC(=O)Nc1ccc(-c2c(C#N)c3ccc(Oc4ncccn4)cc3n2C2CCC2)cc1OC(F)(F)F [Compound 3035]
Second: CC(C)OC(=O)Nc1c(F)cc(-c2c(C#N)c3ccc(Oc4ncccn4)cc3n2C2CCC2)cc1F [Compound 3036]
The melting point of the first is lower: 94 to 96 °C for the first, 144 to 154 °C for the second.

First: CC(C)NC(=O)Nc1c(F)cc(-c2c(C#N)c3ccc(Oc4ncccn4)cc3n2C2CCC2)cc1F [Compound 3038]
Second: CC(C)NC(=O)Nc1c(F)cc(-c2c(C#N)c3ccc(OCCF)cc3n2C2CCC2)cc1F [Compound 3041]
The melting point of the first is higher: 236 to 243 °C for the first, 224 to 229 °C for the second.

First: CC(C)OC(=O)Nc1c(F)cc(-c2c(C#N)c3ccc(OCCF)cc3n2C2CCC2)cc1F [Compound 3039]
Second: C[C@@H](OC(=O)Nc1c(F)cc(-c2c(C#N)c3ccc(OCCF)cc3n2C2CCC2)cc1F)C1CC1 [Compound 3040]
The melting point of the first is lower: 150 to 155 °C for the first, 176 to 180 °C for the second.

Compared with `Cc1cc(-c2c(C#N)c3ccc(OCC(F)F)cc3n2C2CCC2)ccc1NC(=O)OC(C)C(F)(F)F` (stereo not shown) [Compound 3049], `CC(OC(=O)Nc1ccc(-c2c(C#N)c3ccc(OCC(F)F)cc3n2C2CCC2)cc1Cl)C(F)(F)F` (stereo not shown) [Compound 3051] is higher in melting point: 154 to 155 °C for the first, 184 to 185 °C for the second.

In the case of `CC(C)CS(=O)(=O)Nc1ccc(-c2c(C#N)c3ccc(-n4ccccc4=O)cc3n2C2CCC2)cc1` [Compound 3015], the melting point is reported as 270 °C (dec.).
In the case of `C[C@@H](OC(=O)Nc1ccc(-c2c(C#N)c3ccc(-c4cn(C)cn4)cc3n2C2CCC2)cc1)C1CC1` [Compound 3048], the melting point is reported as 120 °C (dec.).

— US7772271B2 (priority 2004, dated 2010)
